In paper PMC4422330 (Bioorganic & medicinal chemistry letters, 2008):

Experiments:
pfDHOD = biological target: T1, pfDHOD (Plasmodium falciparum, UniProt Q08210); assay: biochemical
T1 sequence (Q08210 24-569): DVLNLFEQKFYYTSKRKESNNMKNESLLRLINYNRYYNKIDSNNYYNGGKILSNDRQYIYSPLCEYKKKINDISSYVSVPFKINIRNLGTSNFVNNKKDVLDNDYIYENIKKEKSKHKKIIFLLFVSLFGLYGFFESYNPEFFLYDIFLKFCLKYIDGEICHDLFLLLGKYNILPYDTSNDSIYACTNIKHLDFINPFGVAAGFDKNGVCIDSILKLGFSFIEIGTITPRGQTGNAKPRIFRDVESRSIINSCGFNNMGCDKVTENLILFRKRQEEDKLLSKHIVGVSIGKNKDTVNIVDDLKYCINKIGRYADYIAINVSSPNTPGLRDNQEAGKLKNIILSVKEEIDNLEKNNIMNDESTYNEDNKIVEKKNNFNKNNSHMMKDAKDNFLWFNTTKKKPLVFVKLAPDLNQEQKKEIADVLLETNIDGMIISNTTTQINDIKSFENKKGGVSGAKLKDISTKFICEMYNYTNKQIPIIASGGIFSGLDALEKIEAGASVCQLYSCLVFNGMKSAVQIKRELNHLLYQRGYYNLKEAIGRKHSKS

pfNDH2 [1] = biological target: T2, pfNDH2 (Plasmodium falciparum, UniProt Q8I302); assay: biochemical; assay type: biochemical; settings: for inhibition of pfNDH2 activity (in words): purified recombinant pfNDH2, concentrations of up to 10 µM
pfNDH2 [2] = biological target: T2, pfNDH2; assay: Kinetic properties of purified pfNDH2 with electron-accepting substrates; assay type: biochemical; settings: in vitro, absence of membrane components
P. falciparum DD2-scDHOD = assay type: cell-based, Plasmodium falciparum; settings: drug concentration of up to 10 µM
[3] = test system: O=C1C=CC(=Nc2cc(Cl)c(O)c(Cl)c2)C=C1; assay: Kinetic properties of purified pfNDH2 with electron-accepting substrates; assay type: biochemical, Plasmodium falciparum; settings: pH 8.0; 100.0 °C

Row | Compound | IC50 (pfDHOD) [µM] | IC50 (pfNDH2 [1]) [µM] | utilization as electron acceptor substrate by pfNDH2 (in words) (pfNDH2 [2]) | further results
1 | C[C@@H]1CC[C@H]2[C@@H](C)C(=O)O[C@@H]3O[C@@]4(C)CC[C@@H]1[C@]32OO4 [Artemisinin] | > 10 | > 10 |  | inhibition of pfNDH2 activity (in words) (pfNDH2 [1]): did not perturb catalysis
2 | O=C1C(O)=C([C@H]2CC[C@H](c3ccc(Cl)cc3)CC2)C(=O)c2ccccc21 [Atovaquone] | > 10 | > 10 |  | 
3 | COC1=C(OC)C(=O)C(C)=CC1=O [CoQ0] |  |  | detectable catalysis | 
4 | COC1=C(OC)C(=O)C(CC=C(C)C)=C(C)C1=O [CoQ1] |  |  | detectable catalysis | 
5 | COC1=C(OC)C(=O)C(C/C=C(\C)CC/C=C(\C)CC/C=C(\C)CCC=C(C)C)=C(C)C1=O [CoQ4] |  |  | not efficiently utilized | 
6 | CCCCCCCCCCC1=C(C)C(=O)C(OC)=C(OC)C1=O [CoQD] |  |  | not efficiently utilized | 
7 | O=c1cc(-c2ccccc2)oc2ccccc12 [Flavone] | > 10 | > 10 |  | 
8 | CCCCCCCCCCCCc1cc(=O)c2ccccc2n1O [HDQ, 1-hydroxy-2-dodecyl-4(1H)quinolone] |  | > 10 |  | proliferation of the scDHOD-expressing transgenic strain (in words) (P. falciparum DD2-scDHOD): unaffected; inhibition of pfNDH2 activity (in words) (pfNDH2 [1]): do not inhibit
9 | [Cl-].c1ccc([I+]c2ccccc2)cc1 [IDP, diphenyliodonium chloride] | > 10 | > 10 |  | inhibition of pfNDH2 activity (in words) (pfNDH2 [1]): do not inhibit
10 | C=C(C)[C@H]1Cc2c(ccc3c2O[C@@H]2COc4cc(OC)c(OC)cc4[C@@H]2C3=O)O1 [Rotenone] | > 10 | > 10 |  | 
11 | pfNDH2 (Plasmodium falciparum 3D7) |  |  |  | Km [3]: 4.6 µM; kcat [3]: 0.0317 s⁻¹
